# In patent publication US8231861B2, “Pancreatitis” (priority 2003, dated 2012):
# Tests used:
# [1] = tested on: wild type and TLR4−/− transgenic mice; settings: mouse, in vivo, ip
# Experimental: Studies were performed on wild type and TLR4−/− transgenic mice weighing about 25-30 grams. Animals were housed in cages under standard conditions at room temperature with a twelve-hour light and dark cycle. Food and drinking water were available ad libitum. Secretagogue-induced pancreatitis was elicited by the hourly (twelve times) intraperitoneal injection of caerulein (50 μg/kg). […] One hour after the final caerulein or saline injection, animals were sacrificed by CO2 asphyxia, and tissue and blood samples were rapidly prepared for study. Harvested blood was allowed to clot and then centrifuged, and serum was obtained for measurement of amylase. […]
# Tissue myeloperoxidase (MPO) activity was used as a marker for the sequestration of neutrophils within the pancreas by quantitating photometrically using 3,3′,5,5′-tetramethylbenzidine as a substrate. Pancreatic edema was quantitated by measuring tissue water content and expressing it as a percentage of tissue wet weight. Serum amylase activity was quantitated as described in Singh et al., J. Clin. Invest., 108:1387-1395 (2001). The extent of pancreatic acinar cell necrosis was quantitated morphometrically by an observer who was not aware of the sample identity. […] Ten randomly chosen microscopic fields (×125) were examined for each tissue sample, and the extent of acinar cell injury/necrosis was expressed as a percentage of total acinar tissue. […]
# [2] = tested on: wild type and TLR-4 knock out mice; assay: Arginine-induced acute pancreatitis in wild type and TLR-4 knock out mice; format: in vivo; settings: for pancreatitis outcome (in words): arginine 800 mg/100 g i.p. in two halves, evaluated three days later; for MPO activity in pancreas: after arginine i.p., FIG. 10
# Experimental: To evaluate the effect of the absence of TLR4 in another model of pancreatitis, a new mouse model was created. […] See, e.g., Tani et al., Dig. Dis. Sci. 35, 367-374 (1990). Briefly, pancreatitis was induced in wild type and TLR-4 knock out mice by injecting (i.p.) arginine at a dose of 800 mg/100 g body weight. This dose of arginine was divided in two parts, one half injected at the beginning of the experiment and the other half injected one hour later. Three days later mice were sacrificed and the parameters relating to the severity of pancreatitis were evaluated. Analysis was performed substantially as described above.
reduction of serum amylase activity in TLR4−/− mice as compared to wild type mice [1],pancreatitis outcome (in words) ([2]; TLR4 knock out mice),MPO activity in pancreas ([2]; TLR4−/− mice),"reduction of serum amylase activity in TLR4−/− mice as compared to wild type mice ([2]; after administration of arginine i.p., FIG. 9)",MPO activity in pancreas ([2]; wild type mice),Compound,pancreatitis outcome (in words) ([2]; normal (wild type) mice)
more than 1.6 fold,–,–,–,–,caerulein,–
–,significantly milder pancreatitis,6.8±6.2,more than 2.5 fold,472±320,N=C(N)NCCC[C@H](N)C(=O)O [arginine],pancreatitis that was more severe than that observed with caerulein administration
